Patent publication EP0233461B2, “4,5,6-Substituted-2-pyrimidinamines” (AMERICAN CYANAMID COMPANY, priority 1986, dated 1987)
Structures can show the parent of a compound that is named as a salt.

System: human basophils
Experiment: Inhibition of histamine release from immunologically stimulated human basophils
Type: cell-based
Conditions: Homo sapiens, concentration causing 50% inhibition of histamine release, by linear regression; active if IC50 ≦ 48 µM; read-out: IC50
Description: The blood is allowed to sediment at room temperature in two 50 ml polycarbonate centrifuge tubes until a sharp interface develops between the red cells and plasma (60-90 minutes). The plasma (top) layer from each tube is withdrawn by pipet and transferred to respective 50 ml polycarbonate tubes. The plasma is centrifuged for 8 minutes at 110X G at 4°C. The supernatant is carefully poured off as completely as possible and the cell button is resuspended in 2-3 ml of Tris-A buffer using a siliconized Pasteur pipet. The resuspension is accomplished by drawing the liquid gently in an out of the pipet, with the tip below the liquid until an even suspension of cells is obtained. Sufficient Tris-A buffer is then added to bring the volume in the tube to about 45 ml and the tube is centrifuged at 110X G for 8 minutes at 4°C. The supernatant is poured off and the cell button is resuspended and centrifuged as described above. The supernatant is poured off and the cell button is suspended in 2-3 ml of Tris-ACM buffer to make the final volume sufficient to allow addition to the reaction tubes. Reaction tubes containing anti-IgE or antigens, either alone or with test compound in a total volume of 0.2 ml are prepared and placed in a 37°C bath. The cells are warmed to 37°C and frequently swirled to ensure an even suspension, while 1.0 ml aliquots are added to each reaction tube. The tubes are then incubated for 60 minutes at 37°C, vortexing the tubes gently every 15 minutes to keep the cells evenly suspended. When the reaction is complete, the tubes are centrifuged at 4°C for 10 minutes at 1500 rpm to sediment the cells. […] Blanks and totals are included in each test. The blanks have cells and all reagents except antigen or anti-IgE. The totals contain 0.24 ml of 8% perchloric acid, one ml of cells and 0.2 ml of buffer. All samples are then centrifuged to remove the precipitate protein. […] The automated system consists of the following Technicon Autoanalyzer II components Sampler IV, Dual-Speed Proportioning Pump III, Fluoronephelometer with a narrow pass primary filter 7-60 and a secondary filter 3-74, Recorder, and Digital Printer. The manifold used is the one described by Siraganian vide supra, with the following modifications: the dialyzer is omitted; all pumping tubes pass through a single proportioning pump with large capacity and twice the volume of sample is taken for anaylsis. The automated chemistry consists of the following steps: Extraction from alkaline saline into butanol, back extraction into dilute hydrochloric acid by addition of heptane, reaction of histamine with o-phthaldialdehyde (OPT) at high pH and conversion of the OPT adduct to a stable fluorophore with phosphoric acid. The reaction product is then passed through the fluorometer. The full scale response is adjusted to 50 ng histamine base with a threshold sensitivity of approximately 0.5 ng. The instrument blank (wash) is substracted from the ng histamine of each sample. Then the ng histamine of each sample is divided by the mean of the three totals (cells lysed with perchloric acid) to obtain percent release. Control samples contain antigen but no test compound. Blank (or spontaneous release) samples contain neither antigen nor test compound. The mean of the blanks (three replicates) is subtracted from the percent release for controls and test compounds.

Question: With `Cc1cc(-c2ccnc(Nc3cccc(N(C)C)c3)n2)c(C)o1` [N'-[4-(2,5-Dimethyl-3-furanyl)-2-pyrimidinyl]-N,N-dimethyl-1,3-benzenediamine] as the compound, how does the IC50 read?
Answer: < 24 µM

Question: With `Cc1cc(-c2ccnc(Nc3ccc(N(C)C)cc3)n2)c(C)o1` [N'-[4-(2,5-Dimethyl-3-furanyl)-2-pyrimidinyl]-N,N-dimethyl-1,4-benzenediamine] as the compound, how does the IC50 read?
Answer: 4.9 µM

Question: For `CCN(CC)c1ccc(Nc2nccc(-c3cc4ccccc4o3)n2)cc1` [N'-[4-(2-Benzofuranyl)-2-pyrimidinyl]-N,N-diethyl-1,4-benzenediamine], which IC50 is on record?
Answer: 6.2 µM

Question: With `CN(C)c1ccc(Nc2nccc(-c3cc4ccccc4o3)n2)cc1` [N'-[4-(2-Benzofuranyl)-2-pyrimidinyl]-N,N-dimethyl-1,4-benzenediamine] as the compound, how does the IC50 read?
Answer: 5.6 µM

Question: For `CN(C)c1ccc(Nc2nccc(-c3ccco3)n2)cc1` [N'-[4-(2-Furanyl)-2-pyrimidinyl]-N,N-dimethyl-1,4-benzenediamine], which IC50 is on record?
Answer: 1.9 µM

Question: Which IC50 does the source give for `Cc1cnc(Nc2ccc(N(C)C)cc2)nc1-c1ccco1` [N'-[4-(2-Furanyl)-5-methyl-2-pyrimidinyl]-N,N-dimethyl-1,4-benzenediamine] here?
Answer: 6.1 µM

Question: With `CCN(CC)c1ccc(Nc2nccc(-c3ccco3)n2)cc1` [N,N-Diethyl-N'-[4-(2-furanyl)-2-pyrimidinyl]-1,4-benzenediamine] as the compound, how does the IC50 read?
Answer: 3.4 µM

Question: With `CCN(CC)c1ccc(Nc2nccc(-c3ccccn3)n2)cc1` [N,N-Diethyl-N'-[4-(2-pyridinyl)-2-pyrimidinyl]-1,4-benzenediamine] as the compound, how does the IC50 read?
Answer: 10.1 µM

Question: With `CCN(CC)c1ccc(Nc2nccc(-c3cccnc3)n2)cc1` [N,N-Diethyl-N'-[4-(3-pyridinyl)-2-pyrimidinyl]-1,4-benzenediamine] as the compound, how does the IC50 read?
Answer: 1.7 µM

Question: How did the IC50 turn out when `CCN(CC)c1ccc(Nc2nccc(-c3ccncc3)n2)cc1` [N,N-Diethyl-N'-[4-(4-pyridinyl)-2-pyrimidinyl]-1,4-benzenediamine] was run?
Answer: 1.1 µM

Question: How did the IC50 turn out when `CCN(CC)c1ccc(Nc2nccc(-c3ccc(C)o3)n2)cc1` [N,N-Diethyl-N'-[4-(5-methyl-2-fur-anyl)-2-pyrimidinyl]-1,4-benzene-diamine] was run?
Answer: 28 µM

Question: `Cc1cnc(Nc2cccc(N(C)C)c2)nc1-c1ccco1` [N,N-Dimethyl-N'-[4-(2-furanyl)-5-methyl-2-pyrimidinyl]-1,3-benzene-diamine] was tested. Which IC50 did it give?
Answer: 40 µM

Question: For `CN(C)c1cccc(Nc2nccc(-c3ccccn3)n2)c1` [N,N-Dimethyl-N'-[4-(2-pyridinyl)-2-pyrimidinyl]-1,3-benzenediamine], which IC50 is on record?
Answer: 0.5 µM

Question: For `CN(C)c1ccc(Nc2nccc(-c3ccccn3)n2)cc1` [N,N-Dimethyl-N'-[4-(2-pyridinyl)-2-pyrimidinyl]-1,4-benzenediamine, dihydrochloride], which IC50 is on record?
Answer: 4.4 µM

Question: For `CN(C)c1cccc(Nc2nccc(-c3cccs3)n2)c1` [N,N-Dimethyl-N'-[4-(2-thienyl)-2-pyrimidinyl]-1,3-benzenediamine], which IC50 is on record?
Answer: 2.4 µM

Question: Which IC50 does the source give for `CN(C)c1ccc(Nc2nccc(-c3cccs3)n2)cc1` [N,N-Dimethyl-N'-[4-(2-thienyl)-2-pyrimidinyl]-1,4-benzenediamine] here?
Answer: 0.6 µM

Question: For `Cc1ccsc1-c1ccnc(Nc2ccc(N(C)C)cc2)n1` [N,N-Dimethyl-N'-[4-(3-methyl-2-thienyl)-2-pyrimidinyl]-1,4-benzenediamine], which IC50 is on record?
Answer: 1.8 µM

Question: With `CN(C)c1cccc(Nc2nccc(-c3cccnc3)n2)c1` [N,N-Dimethyl-N'-[4-(3-pyridinyl)-2-pyrimidinyl]-1,3-benzenediamine] as the compound, how does the IC50 read?
Answer: 1.7 µM

Question: Which IC50 does the source give for `CN(C)c1ccc(Nc2nccc(-c3ccsc3)n2)cc1` [N,N-Dimethyl-N'-[4-(3-thienyl)-2-pyrimidinyl]-1,4-benzenediamine] here?
Answer: 2.1 µM

Question: How did the IC50 turn out when `CN(C)c1ccccc1Nc1nccc(-c2ccncc2)n1` [N,N-Dimethyl-N'-[4-(4-pyridinyl)-2-pyrimidinyl]-1,2-benzenediamine, fumarate] was run?
Answer: 36.2 µM

Question: `Cc1ccc(-c2ccnc(Nc3cccc(N(C)C)c3)n2)o1` [N,N-Dimethyl-N'-[4-(5-methyl-2-furanyl)-2-pyrimidinyl]-1,3-benzenediamine] was tested. Which IC50 did it give?
Answer: 1.6 µM

Question: With `Cc1ccc(-c2ccnc(Nc3cccc(N(C)C)c3)n2)s1` [N,N-Dimethyl-N'-[4-(5-methyl-2-thienyl)-2-pyrimidinyl]-1,3-benzenediamine] as the compound, how does the IC50 read?
Answer: 5.7 µM

Question: With `Cc1cc(-c2ccccn2)nc(Nc2ccc(N(C)C)cc2)n1` [N,N-Dimethyl-N'-[4-methyl-6-(2-pyridinyl)-2-pyrimidinyl]-1,4-benzenediamine] as the compound, how does the IC50 read?
Answer: 31.8 µM

Question: How did the IC50 turn out when `Cc1cc(-c2ccncc2)nc(Nc2ccc(N(C)C)cc2)n1` [N,N-Dimethyl-N'-[4-methyl-6-(4-pyridinyl)-2-pyrimidinyl]-1,4-benzenediamine] was run?
Answer: 37.7 µM

Question: For `c1ccc(-c2ccnc(Nc3cccc4ccccc34)n2)nc1` [N-1-Naphthalenyl-4-(2-pyridinyl)-2-pyrimidinamine], which IC50 is on record?
Answer: 3 µM

Question: `c1ccc2c(Nc3nccc(-c4ccncc4)n3)cccc2c1` [N-1-Naphthalenyl-4-(4-pyridinyl)-2-pyrimidinamine] was tested. Which IC50 did it give?
Answer: 31.3 µM

Question: `Cc1cccc(Nc2nccc(-c3ccncc3)n2)c1C` [N-(2,3-Dimethylphenyl)-4-(4-pyridinyl)-2-pyrimidinamine] was tested. Which IC50 did it give?
Answer: 20.2 µM

Question: With `Fc1ccc(Nc2nccc(-c3cccnc3)n2)c(F)c1` [N-(2,4-Difluorophenyl)-4-(3-pyridinyl)-2-pyrimidinamine] as the compound, how does the IC50 read?
Answer: < 48 µM

Question: With `Fc1ccc(Nc2nccc(-c3ccncc3)n2)c(F)c1` [N-(2,4-Difluorophenyl)-4-(4-pyri-dinyl)-2-pyrimidinamine] as the compound, how does the IC50 read?
Answer: < 48 µM

Question: With `Cc1ccc(Nc2nccc(-c3ccncc3)n2)c(C)c1` [N-(2,4-Dimethylphenyl)-4-(4-pyridinyl)-2-pyrimidinamine] as the compound, how does the IC50 read?
Answer: 24 µM

Question: For `Cc1ccc(C)c(Nc2nccc(-c3ccccn3)n2)c1` [N-(2,5-Dimethylphenyl)-4-(2-pyridinyl)-2-pyrimidinamine], which IC50 is on record?
Answer: < 48 µM

Question: With `Cc1ccc(C)c(Nc2nccc(-c3ccncc3)n2)c1` [N-(2,5-Dimethylphenyl)-4-(4-pyridinyl)-2-pyrimidinamine] as the compound, how does the IC50 read?
Answer: 47.1 µM

Question: How did the IC50 turn out when `Fc1cccc(F)c1Nc1nccc(-c2cccnc2)n1` [N-(2,6-Difluorophenyl)-4-(3-pyridinyl)-2-pyrimidinamine] was run?
Answer: 22 µM

Question: Which IC50 does the source give for `Fc1cccc(F)c1Nc1nccc(-c2ccncc2)n1` [N-(2,6-Difluorophenyl)-4-(4-pyridinyl)-2-pyrimidinamine] here?
Answer: 2.9 µM

Same assay, conditions: concentration causing 50% inhibition of histamine release, by linear regression; active if IC50 ≦ 48 µM; dihydrochloride; read-out: IC50

Question: `CN(C)c1cccc(Nc2nccc(-c3ccccn3)n2)c1` [N,N-Dimethyl-N'-[4-(2-pyridinyl)-2-pyrimidinyl]-1,3-benzenediamine, dihydrochloride] was tested. Which IC50 did it give?
Answer: 0.5 µM

Question: Which IC50 does the source give for `CN(C)c1cccc(Nc2nccc(-c3ccncc3)n2)c1` [N,N-Dimethyl-N'-[4-(4-pyridinyl)-2-pyrimidin-yl]-1,3-benzenediamine, dihydrochloride] here?
Answer: 0.5 µM

Same assay, conditions: concentration causing 50% inhibition of histamine release, by linear regression; active if IC50 ≦ 48 µM; read-out: IC50

Question: With `CN(C)c1ccc(Nc2nccc(-c3cccnc3)n2)cc1` [N,N-Dimethyl-N'-[4-(3-pyridinyl)-2-pyrimidinyl]-1,4-benzenediamine] as the compound, how does the IC50 read?
Answer: 3.7 µM

Question: With `CN(C)c1cccc(Nc2nccc(-c3ccncc3)n2)c1` [N,N-Dimethyl-N'-[4-(4-pyridinyl)-2-pyrimidinyl)]-1,3-benzene] [N,N-Dimethyl-N'-[4-(4-pyridinyl)-2-pyrimidinyl)]-1,3-benzenediamine, sulfate] as the compound, how does the IC50 read?
Answer: 1 µM

Question: `CN(C)c1cccc(Nc2nccc(-c3ccncc3)n2)c1` [N,N-Dimethyl-N'-[4-(4-pyridinyl)-2-pyrimidinyl]-1,3-benzened] [N,N-Dimethyl-N'-[4-(4-pyridinyl)-2-pyrimidinyl]-1,3-benzenediamine] was tested. Which IC50 did it give?
Answer: 3.5 µM

Same assay, conditions: concentration causing 50% inhibition of histamine release, by linear regression; active if IC50 ≦ 48 µM; trihydrochloride; read-out: IC50

Question: How did the IC50 turn out when `CN(C)c1cccc(Nc2nccc(-c3ccccn3)n2)c1` [N,N-Dimethyl-N'-[4-(2-pyridinyl)-2-pyriziiidin-yl]-1,3-benzenediamine, trihydrochloride] was run?
Answer: 1 µM

Question: How did the IC50 turn out when `CN(C)c1ccc(Nc2nccc(-c3cccnc3)n2)cc1` [N,N-Dimethyl-N'-[4-(3-pyridinyl)-2-pyrimidinyl]-1,4-benzenediamine, trihydrochloride] was run?
Answer: 1.5 µM

Question: For `CN(C)c1ccc(Nc2nccc(-c3ccncc3)n2)cc1` [N,N-Dimethyl-N'-[4-(4-pyridinyl)-2-pyrimidinyl]-1,4-benzenediamine, trihydrochloride], which IC50 is on record?
Answer: 0.4 µM
